Experimental data from patent US20140357487A1, “PLANTS HAVING INCREASED TOLERANCE TO HERBICIDES” (BASF SE, priority 2011, published 2014).

Columns and labels:
[1] = biological target: T1, Hordeum HPPD variant L320H, P321A (Hordeum vulgare, UniProt O48604, L320H/P321A); test: HPPD activity assay, Hordeum HPPD mutant L320H, P321A; type: biochemical; conditions: normalized on Hordeum wild-type HPPD
T1 construct: His (N); made in house; host or cells: E. coli BL21 (DE3)
Description: (§1) HPPD produces homogentisic acid and CO2 from 4-hydroxyphenylpyruvate (4-HPP) and O2. The activity assay for HPPD is based on the analysis of homogentisic acid by reversed phase HPLC.
(§2) The assay mixture can contain 150 mM potassium phosphate buffer pH 7.0, 50 mM L-ascorbic acid, 1 μM FeSO4 and 7 μg of purified enzyme in a total volume of 1 ml.
(§3) Inhibitors are dissolved in DMSO (dimethylsulfoxide) to a concentration of 20 mM or 0.5 mM, respectively. From this stock solution serial five-fold dilutions are prepared in DMSO, which are used in the assay. The respective inhibitor solution accounts for 1% of the assay volume. […] After a preincubation of 30 min the reaction is started by adding 4-HPP to a final concentration of 0.1 mM. The reaction is allowed to proceed for 120 min at room temperature. The reaction is stopped by addition of 100 μl of 4.5 M phosphoric acid.
(§4) Activities are normalized by setting the uninhibited enzyme activity to 100%. IC50 values are calculated using non-linear regression.
(§5) The assay mixture can contain 150 mM potassium phosphate buffer pH 7.0, 50 mM L-ascorbic acid, 100 μM Catalase (Sigma-Aldrich), 1 μM FeSO4 and 0.2 units of purified HPPD enzyme in a total volume of 505 μl. 1 unit is defined as the amount of enzyme that is required to produce 1 nmol of HGA per minute at 20° C.
(§6) Inhibitors are dissolved in DMSO (dimethylsulfoxide) to a concentration of 0.5 mM. From this stock solution serial five-fold dilutions are prepared in DMSO, which are used in the assay. The respective inhibitor solution accounts for 1% of the assay volume. […] Activities are normalized by setting the uninhibited enzyme activity to 100%. IC50 values are calculated using non-linear regression.
(§7) Purified, mutant HPPD enzymes are obtained by the methods described above. Dose response and kinetic measurements are carried out using the described HPPD activity assay. Apparent michaelis constants (Km) and maximal reaction velocities (Vmax) are calculated by non-linear regression with the software GraphPad Prism 5 (GraphPad Software, La Jolla, USA) using a substrate inhibition model.
(§8) Field performance of the optimized HPPD enzyme, which is used as a herbicide tolerance trait may depend not only on its lack of sensitivity towards HPPD inhibiting herbicides but also on its activity. To assess the potential performance of a herbicide tolerance trait a tolerance index (TI) is calculated using the following formula: […]
(§9) Easy comparison and ranking of each trait is enabled by normalizing tolerance indexes on Arabidopsis or Hordeum wild-type HPPD.

[2] = biological target: T2, Hordeum HPPD variant L320H (Hordeum vulgare, UniProt O48604, A164G/L320H/R146V/R147D/R148G); test: HPPD activity assay, Hordeum HPPD mutant L320H; type: biochemical; conditions: normalized on Hordeum wild-type HPPD
T2 construct: His (N); made in house; host or cells: E. coli BL21 (DE3)
Description: as §1, §2, §3, §4, §5
Inhibitors are dissolved in DMSO (dimethylsulfoxide) to a concentration of 0.5 mM. […] IC50 values are calculated using non-linear regression.
Purified, mutant HPPD enzymes are obtained by the methods described above. […] Apparent michaelis constants (Km) and maximal reaction velocities (Vmax) are calculated by non-linear regression with the software GraphPad Prism 5 (GraphPad Software, La Jolla, USA) using a substrate inhibition model.
as §8

[3] = biological target: T3, Hordeum HPPD variant L334E (Hordeum vulgare, UniProt O48604, A164G/L334E/R146V/R147D/R148G); test: HPPD activity assay, Hordeum HPPD mutant L334E; type: biochemical; conditions: normalized on Hordeum wild-type HPPD
T3 construct: His (N); made in house; host or cells: E. coli BL21 (DE3)
Description: as §1, §2, §3, §4, §5, §6, §7, §8, §9

Hordeum HPPD (SEQ ID: 2) = biological target: T4, Hordeum HPPD (SEQ ID: 2) (Hordeum vulgare, UniProt O48604, A164G/R146V/R147D/R148G); test: HPPD activity assay, Hordeum wild-type HPPD; type: biochemical; conditions: for tolerance index TI: not normalized
T4 construct: His (N); made in house; host or cells: E. coli BL21 (DE3)
Description: as §1, §2, §3, §4, §5, §6
(§10) Using methods which are described in the above examples or well known in the art, purified, recombinant wildtype HPPD enzymes are characterized with respect to their kinetic properties and sensitivity towards HPPD inhibiting herbicides. Apparent michaelis constants (Km) and maximal reaction velocities (Vmax) are calculated by non-linear regression with the software GraphPad Prism 5 (GraphPad Software, La Jolla, USA) using a substrate inhibition model.
as §8, with “of the HPPD enzyme,” for “of the optimized HPPD enzyme,”, “herbicide tolerance trait, may depend” for “herbicide tolerance trait may depend”

[4] = biological target: T5, Hordeum HPPD variant L320Q (Hordeum vulgare, UniProt O48604, A164G/L320Q/R146V/R147D/R148G); test: HPPD activity assay, Hordeum HPPD mutant L320Q; type: biochemical; conditions: normalized on Hordeum wild-type HPPD
T5 construct: His (N); made in house; host or cells: E. coli BL21 (DE3)
Description: as §1, §2, §3, §4, §5, §6, §7, §8, §9

[5] = biological target: T6, Hordeum HPPD variant G407C (Hordeum vulgare, UniProt O48604, A164G/G407C/R146V/R147D/R148G); test: HPPD activity assay, Hordeum HPPD mutant G407C; type: biochemical; conditions: normalized on Hordeum wild-type HPPD
T6 construct: His (N); made in house; host or cells: E. coli BL21 (DE3)
Description: as §1, §2, §3, §4, §5, §6, §7, §8, §9

[6] = biological target: T7, Hordeum HPPD variant L320N (Hordeum vulgare, UniProt O48604, A164G/L320N/R146V/R147D/R148G); test: HPPD activity assay, Hordeum HPPD mutant L320N; type: biochemical; conditions: normalized on Hordeum wild-type HPPD
T7 construct: His (N); made in house; host or cells: E. coli BL21 (DE3)
Description: as §1, §2, §3, §4, §5, §6, §7, §8, §9

Avena HPPD = test: HPPD activity assay, Avena HPPD; type: biochemical, Avena sativa; conditions: normalized on Arabidopsis wild-type HPPD
Description: as §1, §2
Inhibitors are dissolved in DMSO (dimethylsulfoxide) to a concentration of 20 mM or 0.5 mM, respectively. From this stock solution serial five-fold dilutions are prepared in DMSO, which are used in the assay. The respective inhibitor solution accounts for 1% of the assay volume. Thus, final inhibitor concentrations range from 200 μM to 2.5 nM or from 5 μM to 63 pM, respectively. After a preincubation of 30 min the reaction is started by adding 4-HPP to a final concentration of 0.1 mM. The reaction is allowed to proceed for 120 min at room temperature. The reaction is stopped by addition of 100 μl of 4.5 M phosphoric acid.
as §4, §5
Inhibitors are dissolved in DMSO (dimethylsulfoxide) to a concentration of 0.5 mM. From this stock solution serial five-fold dilutions are prepared in DMSO, which are used in the assay. The respective inhibitor solution accounts for 1% of the assay volume. Thus, final inhibitor concentrations range from 5 μM to 320 pM, respectively. Activities are normalized by setting the uninhibited enzyme activity to 100%. IC50 values are calculated using non-linear regression.
as §10, with “model. […] Weighted means (by standard error) of Km and […] values are calculated from at least three independent experiments. […]” for “model.”
as §8, with “of the HPPD enzyme,” for “of the optimized HPPD enzyme,”, “herbicide tolerance trait, may depend” for “herbicide tolerance trait may depend”

[7] = biological target: T8, Hordeum HPPD variant L353M, P321R, V212I (Hordeum vulgare, UniProt O48604, L353M/P321R/V212I); test: HPPD activity assay, Hordeum HPPD mutant L353M, P321R, V212I; type: biochemical; conditions: normalized on Hordeum wild-type HPPD
T8 construct: His (N); made in house; host or cells: E. coli BL21 (DE3)
Description: as §1, §2, §3, §4, §5, §6, §7, §8, §9

[8] = Hordeum HPPD Wildtype, normalized on Hordeum wild-type HPPD
[9] = Hordeum HPPD, normalized on Arabidopsis wild-type HPPD

T8 sequence (O48604 whole entry R146V/R147D/R148G/A164G/V212I/P321R/L353M): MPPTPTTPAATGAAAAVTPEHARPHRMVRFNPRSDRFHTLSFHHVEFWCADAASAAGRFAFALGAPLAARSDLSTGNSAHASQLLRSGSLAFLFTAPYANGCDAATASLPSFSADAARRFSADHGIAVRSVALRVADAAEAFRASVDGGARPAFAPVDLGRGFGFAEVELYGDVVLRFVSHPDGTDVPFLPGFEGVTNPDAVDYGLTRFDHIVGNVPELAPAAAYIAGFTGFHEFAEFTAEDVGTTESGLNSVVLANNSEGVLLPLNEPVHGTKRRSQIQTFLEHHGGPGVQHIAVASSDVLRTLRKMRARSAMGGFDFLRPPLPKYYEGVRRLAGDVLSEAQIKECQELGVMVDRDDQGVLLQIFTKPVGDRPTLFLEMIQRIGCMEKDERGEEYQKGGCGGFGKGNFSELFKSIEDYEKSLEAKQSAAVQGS
T2 sequence (O48604 whole entry R146V/R147D/R148G/A164G/L320H): as the sequence (O48604 whole entry R146V/R147D/R148G/A164G/V212I/P321R/L353M) above, with I212V, L320H, R321P, M353L counted along it
T5 sequence (O48604 whole entry R146V/R147D/R148G/A164G/L320Q): as the sequence (O48604 whole entry R146V/R147D/R148G/A164G/V212I/P321R/L353M) above, with I212V, L320Q, R321P, M353L counted along it
T6 sequence (O48604 whole entry R146V/R147D/R148G/A164G/G407C): as the sequence (O48604 whole entry R146V/R147D/R148G/A164G/V212I/P321R/L353M) above, with I212V, R321P, M353L, G407C counted along it
T7 sequence (O48604 whole entry R146V/R147D/R148G/A164G/L320N): as the sequence (O48604 whole entry R146V/R147D/R148G/A164G/V212I/P321R/L353M) above, with I212V, L320N, R321P, M353L counted along it
T3 sequence (O48604 whole entry R146V/R147D/R148G/A164G/L334E): as the sequence (O48604 whole entry R146V/R147D/R148G/A164G/V212I/P321R/L353M) above, with I212V, R321P, L334E, M353L counted along it
T1 sequence (O48604 whole entry R146V/R147D/R148G/A164G/L320H/P321A): as the sequence (O48604 whole entry R146V/R147D/R148G/A164G/V212I/P321R/L353M) above, with I212V, L320H, R321A, M353L counted along it
T4 sequence (O48604 whole entry R146V/R147D/R148G/A164G): as the sequence (O48604 whole entry R146V/R147D/R148G/A164G/V212I/P321R/L353M) above, with I212V, R321P, M353L counted along it

Row | Compound | Normalized tolerance index TI [1] | Normalized tolerance index TI [2] | Normalized tolerance index TI [3] | Ki (Hordeum HPPD (SEQ ID: 2)) [nM] | Normalized tolerance index TI (Hordeum HPPD (SEQ ID: 2); [8]) | Normalized tolerance index TI (Hordeum HPPD (SEQ ID: 2); [9]) | tolerance index TI (Hordeum HPPD (SEQ ID: 2); Hordeum HPPD) | Normalized tolerance index TI [4] | Normalized tolerance index TI [5] | Normalized tolerance index TI [6] | Normalized tolerance index TI (Avena HPPD) | Normalized tolerance index TI [7]
1 | CC1=NOC(c2c(Cl)ccc(C3=C(O)c4ncccc4C(C)(C)S3(=O)=O)c2Cl)C1 (stereo not shown) [Inhibitor 1, 7-[2,4-dichloro-3-(3-methyl-4,5-dihydroisoxazol-5-yl)phenyl]-5,5-dimethyl-6,6-dioxo-thiopyrano[4,3-b]pyridin-8-ol] | 5.2 | 8.5 | 1.5 | 6.6 | 1 | 0.7 | 2.9E−3 | 2.1 | 2.7 | 2 | 4.7 | 2.2
2 | COCCOCc1c(Cl)ccc(C2=C(O)c3ncccc3C(C)(C)S2(=O)=O)c1Cl [Inhibitor 3, 7-[2,4-dichloro-3-(2-methoxyethoxymethyl)phenyl]-5,5-dimethyl-6,6-dioxo-thiopyrano[4,3-b]pyridin-8-ol] | 4.8 | 7.4 | 1.5 |  | 1 | 0 |  | 2.4 | 2.4 | 1.9 | 0.1 | 1.9
3 | CC1(C)c2cccnc2C(O)=C(c2ccc(Cl)nc2Cl)S1(=O)=O [Inhibitor 2, 7-(2,6-dichloro-3-pyridyl)-5,5-dimethyl-6,6-dioxo-thiopyrano[4,3-b]pyridin-8-ol] | 2.5 | 2.7 | 1.4 | 4.9 | 1 | 0.5 | 2.2E−3 | 0.7 | 2 | 1.7 | 2.8 | 1.5
